For experiment [1], the target named is Beta-1 adrenergic receptor (Homo sapiens, UniProt P08588). Format: functional.
The target of experiment [2] is 5-hydroxytryptamine receptor 2A (Homo sapiens, UniProt P28223). Type of experiment: functional, cell-based.
Experiment [3] concerns the target T1, Progesterone receptor (Homo sapiens, UniProt P06401).
T1 sequence (P06401 whole entry): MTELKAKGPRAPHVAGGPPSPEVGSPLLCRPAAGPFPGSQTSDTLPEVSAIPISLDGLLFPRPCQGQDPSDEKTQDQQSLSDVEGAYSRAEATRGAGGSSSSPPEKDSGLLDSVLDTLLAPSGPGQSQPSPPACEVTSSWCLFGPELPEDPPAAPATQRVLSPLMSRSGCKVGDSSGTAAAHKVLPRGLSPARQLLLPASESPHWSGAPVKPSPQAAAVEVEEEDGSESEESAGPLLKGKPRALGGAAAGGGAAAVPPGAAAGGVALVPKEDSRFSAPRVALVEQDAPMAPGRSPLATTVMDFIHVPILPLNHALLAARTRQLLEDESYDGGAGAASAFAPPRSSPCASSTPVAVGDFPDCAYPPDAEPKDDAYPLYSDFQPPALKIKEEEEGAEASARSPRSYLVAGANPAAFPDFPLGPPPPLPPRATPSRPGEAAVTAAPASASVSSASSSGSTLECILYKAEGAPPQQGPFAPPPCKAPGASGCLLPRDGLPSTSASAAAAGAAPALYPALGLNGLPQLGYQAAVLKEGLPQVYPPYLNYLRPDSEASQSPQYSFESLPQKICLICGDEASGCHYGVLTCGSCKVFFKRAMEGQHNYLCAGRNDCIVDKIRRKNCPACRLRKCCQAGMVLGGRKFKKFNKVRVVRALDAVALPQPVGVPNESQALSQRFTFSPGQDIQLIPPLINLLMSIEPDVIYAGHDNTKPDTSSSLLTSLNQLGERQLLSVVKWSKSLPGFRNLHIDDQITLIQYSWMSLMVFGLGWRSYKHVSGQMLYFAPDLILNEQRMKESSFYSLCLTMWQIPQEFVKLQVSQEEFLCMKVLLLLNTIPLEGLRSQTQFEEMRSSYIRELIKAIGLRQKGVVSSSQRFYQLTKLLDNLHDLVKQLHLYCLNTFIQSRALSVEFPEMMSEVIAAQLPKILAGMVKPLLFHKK
Format: functional.

Experiment [4] deals with Beta-2 adrenergic receptor (Homo sapiens, UniProt P07550).
Beta-2 adrenergic receptor, sequence (P07550 whole entry): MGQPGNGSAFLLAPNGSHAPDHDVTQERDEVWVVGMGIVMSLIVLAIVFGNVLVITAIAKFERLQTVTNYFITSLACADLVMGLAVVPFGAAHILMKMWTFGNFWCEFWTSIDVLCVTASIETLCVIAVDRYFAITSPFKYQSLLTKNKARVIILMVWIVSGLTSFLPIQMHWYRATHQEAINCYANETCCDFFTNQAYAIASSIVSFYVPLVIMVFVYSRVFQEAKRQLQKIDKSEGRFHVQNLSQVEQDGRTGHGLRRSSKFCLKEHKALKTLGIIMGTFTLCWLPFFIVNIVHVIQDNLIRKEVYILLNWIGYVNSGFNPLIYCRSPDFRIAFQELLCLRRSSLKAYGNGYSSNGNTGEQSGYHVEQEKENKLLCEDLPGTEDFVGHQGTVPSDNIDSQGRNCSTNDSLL
Another experiment deals with Cannabinoid receptor 1 (Homo sapiens, UniProt P21554).
Cannabinoid receptor 1, sequence (P21554 whole entry): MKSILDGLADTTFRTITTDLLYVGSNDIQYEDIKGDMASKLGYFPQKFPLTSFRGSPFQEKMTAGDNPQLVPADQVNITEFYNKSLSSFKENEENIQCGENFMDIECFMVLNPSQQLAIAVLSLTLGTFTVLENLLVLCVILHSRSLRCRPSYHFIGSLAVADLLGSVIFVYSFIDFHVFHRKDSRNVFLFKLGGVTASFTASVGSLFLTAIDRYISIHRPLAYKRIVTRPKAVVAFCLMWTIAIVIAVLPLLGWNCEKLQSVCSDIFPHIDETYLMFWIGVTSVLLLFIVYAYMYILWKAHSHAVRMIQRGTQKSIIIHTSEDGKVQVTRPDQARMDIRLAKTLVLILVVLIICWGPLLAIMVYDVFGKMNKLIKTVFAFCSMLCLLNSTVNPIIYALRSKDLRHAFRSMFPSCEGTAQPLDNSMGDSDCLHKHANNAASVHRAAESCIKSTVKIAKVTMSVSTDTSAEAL
Another experiment concerns the target T2, Adenosine receptor A3 (Homo sapiens, UniProt P0DMS8).
T2 sequence (P0DMS8 whole entry): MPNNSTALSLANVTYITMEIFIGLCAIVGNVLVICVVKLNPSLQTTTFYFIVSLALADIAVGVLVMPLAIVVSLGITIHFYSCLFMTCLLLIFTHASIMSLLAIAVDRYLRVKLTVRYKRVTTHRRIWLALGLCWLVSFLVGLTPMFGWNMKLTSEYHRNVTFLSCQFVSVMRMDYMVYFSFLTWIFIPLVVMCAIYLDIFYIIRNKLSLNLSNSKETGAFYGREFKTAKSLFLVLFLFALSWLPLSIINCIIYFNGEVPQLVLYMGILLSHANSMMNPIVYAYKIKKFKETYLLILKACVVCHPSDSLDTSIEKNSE

Experiment [5] concerns the target T3, Alpha-1A adrenergic receptor (Homo sapiens, UniProt P35348).
T3 sequence (P35348 whole entry): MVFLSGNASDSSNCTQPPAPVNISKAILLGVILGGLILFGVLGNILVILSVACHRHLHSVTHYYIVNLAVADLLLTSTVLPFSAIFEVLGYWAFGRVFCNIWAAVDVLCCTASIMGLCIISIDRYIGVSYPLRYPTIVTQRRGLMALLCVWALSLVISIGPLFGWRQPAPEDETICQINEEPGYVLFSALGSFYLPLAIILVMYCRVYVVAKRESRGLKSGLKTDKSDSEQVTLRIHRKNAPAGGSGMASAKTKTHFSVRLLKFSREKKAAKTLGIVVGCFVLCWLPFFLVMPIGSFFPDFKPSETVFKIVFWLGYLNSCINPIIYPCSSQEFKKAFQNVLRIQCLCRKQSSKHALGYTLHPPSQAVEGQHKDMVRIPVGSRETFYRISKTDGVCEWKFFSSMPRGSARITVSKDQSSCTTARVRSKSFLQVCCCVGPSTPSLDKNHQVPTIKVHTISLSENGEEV
Format: functional, cell-based.

In experiment [6] the target is T4, Alpha-2A adrenergic receptor (Homo sapiens, UniProt P08913).
T4 sequence (P08913 whole entry): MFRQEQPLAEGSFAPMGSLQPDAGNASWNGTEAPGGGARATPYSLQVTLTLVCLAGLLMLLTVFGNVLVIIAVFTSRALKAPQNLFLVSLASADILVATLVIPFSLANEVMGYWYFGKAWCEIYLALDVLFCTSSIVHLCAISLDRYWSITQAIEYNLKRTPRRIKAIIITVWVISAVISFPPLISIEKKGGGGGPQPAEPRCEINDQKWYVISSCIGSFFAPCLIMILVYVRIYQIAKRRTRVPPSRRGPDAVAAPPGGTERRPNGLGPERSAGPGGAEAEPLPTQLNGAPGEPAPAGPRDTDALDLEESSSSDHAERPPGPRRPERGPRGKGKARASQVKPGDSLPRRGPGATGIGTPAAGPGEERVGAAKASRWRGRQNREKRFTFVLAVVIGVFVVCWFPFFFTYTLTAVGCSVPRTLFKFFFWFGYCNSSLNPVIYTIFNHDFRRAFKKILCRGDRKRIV

For a further experiment, the target named is D(1A) dopamine receptor (Homo sapiens, UniProt P21728).
D(1A) dopamine receptor, sequence (P21728 whole entry): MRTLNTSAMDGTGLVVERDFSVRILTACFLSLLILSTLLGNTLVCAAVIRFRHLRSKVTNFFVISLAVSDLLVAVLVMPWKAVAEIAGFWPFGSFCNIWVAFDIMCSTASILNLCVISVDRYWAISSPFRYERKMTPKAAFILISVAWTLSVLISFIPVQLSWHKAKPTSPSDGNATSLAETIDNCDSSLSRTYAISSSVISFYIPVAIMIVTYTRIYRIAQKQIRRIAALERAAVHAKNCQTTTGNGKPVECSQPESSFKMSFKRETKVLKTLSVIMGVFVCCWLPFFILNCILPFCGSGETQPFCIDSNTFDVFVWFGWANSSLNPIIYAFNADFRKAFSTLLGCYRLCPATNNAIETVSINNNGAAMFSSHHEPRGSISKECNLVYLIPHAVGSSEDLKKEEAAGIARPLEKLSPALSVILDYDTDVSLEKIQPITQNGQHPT
Experiment [7] has as its target T5, 5-hydroxytryptamine receptor 1A (Homo sapiens, UniProt P08908).
T5 sequence (P08908 whole entry): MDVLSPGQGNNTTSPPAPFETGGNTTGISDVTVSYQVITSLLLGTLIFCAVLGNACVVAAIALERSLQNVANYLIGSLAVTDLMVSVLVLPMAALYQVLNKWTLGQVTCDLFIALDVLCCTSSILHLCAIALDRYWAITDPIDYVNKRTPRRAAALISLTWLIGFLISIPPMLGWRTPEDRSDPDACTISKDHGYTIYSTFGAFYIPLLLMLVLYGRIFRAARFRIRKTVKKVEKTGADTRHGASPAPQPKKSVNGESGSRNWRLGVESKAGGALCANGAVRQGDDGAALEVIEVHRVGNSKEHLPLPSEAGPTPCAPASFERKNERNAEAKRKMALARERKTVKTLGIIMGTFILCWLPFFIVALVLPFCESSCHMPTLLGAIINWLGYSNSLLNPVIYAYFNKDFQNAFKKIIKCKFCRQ

In experiment [8] the target is T1, Progesterone receptor.

Broadly, the AC50 is the concentration giving half of the maximal activity seen. Read a high AC50 as weaker potency.

Values joined by “and” are separate entries in the source; they are usually repeats but may differ in a detail not shown here. Equal values may be shown once. Bounds are passed on as bounds.
Also: assay procedure not described here.

Beta-1 adrenergic receptor, sequence (P08588 whole entry): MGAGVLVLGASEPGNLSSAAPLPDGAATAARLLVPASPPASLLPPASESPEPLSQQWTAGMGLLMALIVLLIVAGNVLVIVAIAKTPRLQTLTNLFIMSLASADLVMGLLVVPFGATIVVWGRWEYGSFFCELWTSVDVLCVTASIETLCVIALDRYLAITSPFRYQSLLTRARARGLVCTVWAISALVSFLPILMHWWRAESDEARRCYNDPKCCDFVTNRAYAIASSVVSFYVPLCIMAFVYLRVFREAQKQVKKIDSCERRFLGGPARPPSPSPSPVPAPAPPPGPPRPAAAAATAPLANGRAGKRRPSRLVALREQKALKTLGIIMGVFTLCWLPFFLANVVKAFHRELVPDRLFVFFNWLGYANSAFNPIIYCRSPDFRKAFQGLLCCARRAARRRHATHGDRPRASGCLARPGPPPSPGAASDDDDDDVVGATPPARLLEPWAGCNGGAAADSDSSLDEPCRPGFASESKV
5-hydroxytryptamine receptor 2A, sequence (P28223 whole entry): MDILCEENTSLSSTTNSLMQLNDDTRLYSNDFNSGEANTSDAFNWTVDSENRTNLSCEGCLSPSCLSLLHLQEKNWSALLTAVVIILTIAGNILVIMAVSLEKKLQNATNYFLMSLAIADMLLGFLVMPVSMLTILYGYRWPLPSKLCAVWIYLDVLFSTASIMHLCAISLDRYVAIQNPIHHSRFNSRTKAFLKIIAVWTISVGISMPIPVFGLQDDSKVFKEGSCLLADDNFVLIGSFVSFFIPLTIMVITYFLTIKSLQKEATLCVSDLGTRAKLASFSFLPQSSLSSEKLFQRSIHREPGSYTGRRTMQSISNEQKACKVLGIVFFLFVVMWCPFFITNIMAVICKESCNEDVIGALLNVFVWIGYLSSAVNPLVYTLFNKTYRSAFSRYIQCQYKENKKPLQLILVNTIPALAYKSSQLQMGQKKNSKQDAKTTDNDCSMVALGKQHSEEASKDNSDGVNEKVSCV

Consider `CC(=O)N[C@@H](CS)C(=O)O` [ACETYLCYSTEINE], for which the concentration at half-maximal activity (AC50) (in experiment [1]; in [2]; on Progesterone receptor [3]) was greater than 30 µM throughout.

As for `C/N=C(\NC)NCc1ccccc1` [BETHANIDINE], the AC50 (in experiment [2]; at Progesterone receptor [3]) was greater than 30 µM in each case.

On to `CCC(C)C1(CC)C(=O)NC(=O)NC1=O` (stereo not drawn) [BUTABARBITAL], for which the AC50 (in experiment [1]; in [2]; on Progesterone receptor [3]) was greater than 30 µM in each case.

In the case of `COCC1=C(C(=O)O)N2C(=O)[C@@H](NC(=O)/C(=N\OC)c3csc(N)n3)[C@H]2SC1` [CEFPODOXIME], the AC50 (in [1]; in [4]; in experiment [2]; on Progesterone receptor [3]) was greater than 30 µM each time.

Consider `COc1cc(N)c(Cl)cc1C(=O)NC1CCN(Cc2ccccc2)CC1` [CLEBOPRIDE], for which the results for the AC50 (in experiment [4]; in experiment [2]; at Progesterone receptor [3]) were greater than 30 µM, 2.4 µM and greater than 30 µM, respectively.

On to `Nc1ncn([C@H]2C[C@H](O)[C@@H](CO)O2)c(=O)n1` [DECITABINE], for which the AC50 in [1] is 19.1 µM; at Cannabinoid receptor 1 it was greater than 30 µM; in experiment [2], greater than 30 µM; at Progesterone receptor [3] it was greater than 30 µM.

Take `CC(C)(C)C(=O)OCC(=O)[C@H]1CC[C@H]2[C@@H]3CCC4=CC(=O)CC[C@]4(C)[C@H]3CC[C@]12C` [DESOXYCORTICOSTERONE PIVALATE]: the AC50 (in experiment [1]; in [4]; on Cannabinoid receptor 1; in experiment [2]) was greater than 10 µM throughout.

With `CC(C(=O)O)c1ccc(-c2ccccc2)c(F)c1` (stereo not drawn) [FLURBIPROFEN], the AC50 on Adenosine receptor A3 is greater than 30 µM; in experiment [5], greater than 30 µM; in experiment [6], greater than 30 µM; in experiment [1], greater than 10 µM; in experiment [4] it was greater than 10 µM; at Cannabinoid receptor 1, greater than 10 µM. In addition, the AC50 (at D(1A) dopamine receptor; in experiment [7]) was greater than 30 µM in each case.

Regarding `CCC(=O)O[C@]1(C(=O)SCF)[C@H](C)C[C@H]2[C@@H]3C[C@H](F)C4=CC(=O)C=C[C@]4(C)[C@@]3(F)[C@@H](O)C[C@@]21C` [FLUTICASONE PROPIONATE], the AC50 at Adenosine receptor A3 was 23.2 µM; in experiment [5], greater than 30 µM; in experiment [6], greater than 30 µM; in [1] it was greater than 30 µM; in experiment [4], greater than 30 µM; on Cannabinoid receptor 1, greater than 30 µM. Further, the AC50 (at D(1A) dopamine receptor; in experiment [7]) was greater than 30 µM in each case.

For the compound `C[C@]12CCC(=O)C(O)=C1CC[C@@H]1[C@@H]2CC[C@]2(C)C(=O)CC[C@@H]12` [FORMESTANE], the AC50 in experiment [1], in experiment [4] and in experiment [2] was greater than 30 µM each time.

As to `C[C@]12CC[C@@H]3c4ccc(O)cc4C[C@@H](CCCCCCCCC[S+]([O-])CCCC(F)(F)C(F)(F)F)[C@H]3[C@@H]1CC[C@@H]2O` (stereo partly drawn) [FULVESTRANT], the values for the AC50 (in experiment [1]; in experiment [2]; on Progesterone receptor [3]) were greater than 30 µM, greater than 30 µM and 3.6 µM, respectively.

Regarding `CN1CCN(C2=Nc3ccccc3Oc3ccc(Cl)cc32)CC1` [LOXAPINE], the AC50 was 27.4 µM on Adenosine receptor A3; greater than 30 µM in experiment [5]; greater than 10 µM in experiment [1]; 8.8 µM in experiment [4]; greater than 10 µM at Cannabinoid receptor 1; 0.0245 µM on D(1A) dopamine receptor. Also, the AC50 in [7] was 3.95 µM; on Progesterone receptor [8] it was greater than 30 µM.

Regarding `C[C@H](Cc1ccc(O)c(O)c1)[C@@H](C)Cc1ccc(O)c(O)c1` [MASOPROCOL], the AC50 was greater than 30 µM in [1]; greater than 10 µM in experiment [4]; 23.9 µM at Cannabinoid receptor 1; 13 µM and > 30 µM and 21 µM in experiment [2].

With `O=[N+]([O-])c1ccc(O)c2ncccc12` [NITROXOLINE], the concentration at half-maximal activity (AC50) (in experiment [6]; at D(1A) dopamine receptor; in experiment [7]; in experiment [2]; on Progesterone receptor [8]) was greater than 30 µM in each case.

For `C#C[C@]1(OC(C)=O)CC[C@H]2[C@@H]3CCC4=C/C(=N/O)CC[C@@H]4[C@H]3CC[C@@]21CC` [NORGESTIMATE], the AC50 in experiment [1], in [4] and in [2] was greater than 30 µM each time.

Consider `Clc1ccc2c(N3CCN(CCCN4CCN(c5ccnc6cc(Cl)ccc56)CC4)CC3)ccnc2c1` [PIPERAQUINE], for which the AC50 (in experiment [1]; in experiment [4]; in experiment [2]; at Progesterone receptor [3]) was greater than 30 µM in each case.

As to `CNCc1ccc(-c2[nH]c3cc(F)cc4c3c2CCNC4=O)cc1` [RUCAPARIB], the AC50 is 40.1 µM in [1], greater than 30 µM in experiment [4] and greater than 10 µM in experiment [2].

`CC1(C)S[C@@H]2[C@H](NC(=O)[C@H](N)c3ccccc3)C(=O)N2[C@H]1C(=O)OCOC(=O)[C@@H]1N2C(=O)C[C@H]2S(=O)(=O)C1(C)C` [SULTAMICILLIN]: the AC50 (in experiment [4]; in experiment [2]; at Progesterone receptor [3]) was greater than 30 µM throughout.

Turning to `CCC(=O)O[C@H]1CC[C@H]2[C@@H]3CCC4=CC(=O)CC[C@]4(C)[C@H]3CC[C@]12C` [TESTOSTERONE PROPIONATE], the AC50 is greater than 10 µM in [1], greater than 10 µM in experiment [4], greater than 10 µM at Cannabinoid receptor 1 and greater than 30 µM in experiment [2].

For `Cc1cccc(N2CC(CO)OC2=O)c1` (stereo not drawn) [TOLOXATONE], the AC50 (in experiment [1]; in experiment [2]; on Progesterone receptor [3]) was greater than 30 µM each time.

On to `CCC(C)C(CC)C(N)=O` (stereo not drawn) [VALNOCTAMIDE], for which the half-maximal activity concentration (AC50) (in experiment [1]; in [2]; at Progesterone receptor [3]) was greater than 30 µM in each case.

For the compound `CCOC(=O)C1=C[C@]2(CC)CCCN3CCc4c(n1c1ccccc41)[C@@H]32` [VINPOCETINE], the AC50 (in [1]; in [2]; at Progesterone receptor [3]) was greater than 30 µM throughout.

The values are drawn from ChEMBL document CHEMBL5291721, “A preclinical secondary pharmacology resource illuminates target-adverse drug reaction associations of marketed drugs” (Nat Commun, 2023).
